# Measurements taken from ChEMBL document CHEMBL5126640, “Sanggenon C Suppresses Tumorigenesis of Gastric Cancer by Blocking ERK-Drp1-Mediated Mitochondrial Fission” (J Nat Prod, 2022).
# Calls of active or inactive are those of the source. No cut-off for these calls is given here.
# What was measured:
# [1] = tested on: HGC-27; experiment: Antiproliferative activity against human HGC-27 cells assessed as reduction in cell growth measured after 24 hrs by CCK8 assay; assay type: functional, cell-based; conditions: HGC-27, 24 h
# [2] = tested on: AGS; experiment: Antiproliferative activity against human AGS cells assessed as reduction in cell growth measured after 24 hrs by CCK8 assay; assay type: functional, cell-based
# [3] = tested on: HGC-27; experiment: Inhibition of colony formation of human HGC-27 cells assessed as reduction in colony number at 0 to 10 uM measured after 24 hrs by crystal violet staining assay; assay type: functional, cell-based; conditions: dose 0-10 µM
# [4] = tested on: AGS; experiment: Induction of cell cycle arrest in human AGS cells assessed as accumulation of cells at G0/G1 phase at 6 uM incubated for 24 hrs propidium iodide staining-based flow cytometric analysis (reference value: 46.51%); assay type: functional
# [5] = tested on: AGS; experiment: Induction of cell cycle arrest in human AGS cells assessed as accumulation of cells at G0/G1 phase at 8 uM incubated for 24 hrs propidium iodide staining-based flow cytometric analysis (reference value: 46.51%); assay type: functional
# [6] = tested on: AGS; experiment: Induction of cell cycle arrest in human AGS cells assessed as accumulation of cells at G0/G1 phase at 10 uM incubated for 24 hrs propidium iodide staining-based flow cytometric analysis (reference value: 46.51%); assay type: functional
# [7] = tested on: HGC-27; experiment: Induction of cell cycle arrest in human HGC-27 cells assessed as decrease in CDK4 level at 0 to 10 uM by Western blot analysis; assay type: functional, cell-based; conditions: dose 0-10 µM
# [8] = tested on: HGC-27; experiment: Induction of apoptosis in human HGC-27 cells assessed as viable cells at 6 uM measured after 24 hrs by AnnexinV-FITC/PI staining based flowcytometry method (reference value: 91.1%); assay type: functional; conditions: read-out: Activity
# [9] = tested on: HGC-27; experiment: Induction of apoptosis in human HGC-27 cells assessed as viable cells at 8 uM measured after 24 hrs by AnnexinV-FITC/PI staining based flowcytometry method (reference value: 91.1%); assay type: functional; conditions: read-out: Activity
# [10] = tested on: HGC-27; experiment: Induction of apoptosis in human HGC-27 cells assessed as early apoptotic cells at 6 uM measured after 24 hrs by AnnexinV-FITC/PI staining based flowcytometry method (reference value: 3.3%); assay type: functional
# [11] = tested on: HGC-27; experiment: Induction of apoptosis in human HGC-27 cells assessed as early apoptotic cells at 10 uM measured after 24 hrs by AnnexinV-FITC/PI staining based flowcytometry method (reference value: 3.3%); assay type: functional
# [12] = tested on: HGC-27; experiment: Induction of apoptosis in human HGC-27 cells assessed as late apoptotic cells at 8 uM measured after 24 hrs by AnnexinV-FITC/PI staining based flowcytometry method (reference value: 5.4%); assay type: functional
# [13] = tested on: HGC-27; experiment: Induction of apoptosis in human HGC-27 cells assessed as necrotic cells at 8 uM measured after 24 hrs by AnnexinV-FITC/PI staining based flowcytometry method (reference value: 0.2%); assay type: functional
# [14] = tested on: AGS; experiment: Induction of apoptosis in human AGS cells assessed as viable cells at 6 uM measured after 24 hrs by AnnexinV-FITC/PI staining based flowcytometry method (reference value: 95.2%); assay type: functional; conditions: read-out: Activity
# [15] = tested on: AGS; experiment: Induction of apoptosis in human AGS cells assessed as early apoptotic cells at 10 uM measured after 24 hrs by AnnexinV-FITC/PI staining based flowcytometry method (reference value: 1.2%); assay type: functional
# [16] = tested on: AGS; experiment: Induction of apoptosis in human AGS cells assessed as late apoptotic cells at 8 uM measured after 24 hrs by AnnexinV-FITC/PI staining based flowcytometry method (reference value: 3.4%); assay type: functional
# [17] = tested on: AGS; experiment: Induction of apoptosis in human AGS cells assessed as necrotic cells at 6 uM measured after 24 hrs by AnnexinV-FITC/PI staining based flowcytometry method (reference value: 0.2%); assay type: functional
# [18] = tested on: AGS; experiment: Induction of apoptosis in human AGS cells assessed as necrotic cells at 8 uM measured after 24 hrs by AnnexinV-FITC/PI staining based flowcytometry method (reference value: 0.2%); assay type: functional
# [19] = tested on: HGC-27; experiment: Induction of apoptosis in human HGC-27 cells assessed as increase in cleaved caspase-3 level at 0 to 10 uM by Western blot analysis; assay type: functional, cell-based; conditions: dose 0-10 µM
# [20] = tested on: AGS; experiment: Induction of apoptosis in human AGS cells assessed as increase in cleaved caspase-3 level at 0 to 10 uM by Western blot analysis; assay type: functional, cell-based; conditions: dose 0-10 µM
# [21] = tested on: HGC-27; experiment: Induction of mitochondrial dysfunction in human HGC-27 cells assessed as decrease in mitochondrial membrane potential measured after 24 hrs by JC-1 staining based flow cytometry; assay type: functional, cell-based; conditions: DDE = dose-dependent effect
# [22] = tested on: AGS; experiment: Inhibition of mitochondrial fission in human AGS cells assessed as reduction in ATP content at 0 to 10 uM measured after 24 hrs by microplate reader assay; assay type: functional, cell-based; conditions: dose 0-10 µM
# [23] = tested on: HGC-27; experiment: Induction of apoptosis in human HGC-27 cells assessed as early apoptotic cells measured after 24 hrs by AnnexinV-FITC/PI staining based flow cytometry method (reference value: 1.6%); assay type: functional
# [24] = tested on: AGS; experiment: Induction of apoptosis in human AGS cells assessed as necrotic cells measured after 24 hrs by AnnexinV-FITC/PI staining based flow cytometry method (reference value: 0.1%); assay type: functional
# [25] = tested on: HGC-27; experiment: Induction of apoptosis in human HGC-27 cells transfected with pcDNA3.1-Drp1 plasmid to overexpress DRP1 assessed as early apoptotic cells measured after 24 hrs by AnnexinV-FITC/PI staining based flow cytometry method (reference value: 2.1%); assay type: functional
# [26] = tested on: HGC-27; experiment: Induction of apoptosis in human HGC-27 cells transfected with pcDNA3.1-Drp1 plasmid to overexpress DRP1 assessed as late apoptotic cells measured after 24 hrs by AnnexinV-FITC/PI staining based flow cytometry method (reference value: 2.0%); assay type: functional
# [27] = tested on: HGC-27; experiment: Induction of apoptosis in human HGC-27 cells transfected with pcDNA3.1-Drp1 plasmid to overexpress DRP1 assessed as necrotic cells measured after 24 hrs by AnnexinV-FITC/PI staining based flow cytometry method (reference value: 0%); assay type: functional
# [28] = tested on: AGS; experiment: Induction of apoptosis in human AGS cells transfected with pcDNA3.1-Drp1 plasmid to overexpress DRP1 assessed as early apoptotic cells and measured after 24 hrs by AnnexinV-FITC/PI staining based flow cytometry method (reference value: 2.1 %); assay type: functional
# [29] = tested on: AGS; experiment: Induction of apoptosis in human AGS cells transfected with pcDNA3.1-Drp1 plasmid to overexpress DRP1 assessed as necrotic cells and measured after 24 hrs by AnnexinV-FITC/PI staining based flow cytometry method (reference value: 0.2 %); assay type: functional
# [30] = tested on: HGC-27; experiment: Inhibition of ERK signalling pathway in human […] cells assessed as downregulation of p-ERK levels at 0 to 10 uM and measured after 24 hrs by western blot analysis; assay type: cell-based; conditions: dose 0-10 µM
# [31] = Toxicity in nude mouse xenografted with human AGS cells assessed as effect on aspartate aminotransferase level at 10 to 20 mg/kg, ip administered every other day and monitored every 3 days; assay type: organism-based; conditions: in vivo, 72 h, dose 10-20 mg/kg, time 3 day
# [32] = Toxicity in nude mouse xenografted with human AGS cells assessed as effect on liver morphology at 10 to 20 mg/kg, ip administered every other day and monitored every 3 days by Hematoxyin-eosin staining based analysis; assay type: organism-based; conditions: in vivo, 72 h, dose 10-20 mg/kg, time 3 day
# [33] = tested on: Mus musculus; experiment: In vivo inhibition of ERK signalling pathway in nude mouse xenografted with human AGS cells assessed as downregulation of p-ERK levels at 10 to 20 mg/kg, ip administered every other day and monitored every 3 days by western blot analysis; assay type: functional, organism-based; conditions: dose 10-20 mg/kg, time 3.0 day
smiles,measurement,setting,value
CC(C)=CCC12Oc3cc(O)ccc3C1(O)Oc1cc(O)c([C@H]3C=C(C)C[C@H](c4ccc(O)cc4O)[C@H]3C(=O)c3ccc(O)cc3O)c(O)c1C2=O (stereo partly drawn),IC50,[1],9.13 µM
same,IC50,[2],9.86 µM
same,inhibition,[3],Active
same,Activity,[4],54.7%
same,Activity,[5],54.9%
same,Activity,[6],55.9%
same,Activity,[7],Active
same,viability at 6 µM,[8],84.2%
same,viability at 8 µM,[9],83.1%
same,Activity,[10],4.2%
same,Activity,[11],10.3%
same,Activity,[12],11.1%
same,Activity,[13],1.8%
same,viability at 6 µM,[14],90.1%
same,Activity,[15],3.2%
same,Activity,[16],7.9%
same,Activity,[17],0.2%
same,Activity,[18],0.3%
same,Activity,[19],Active
same,Activity,[20],Active
same,Activity,[21],Dde
same,inhibition,[22],Active
same,Activity,[23],4.3%
same,Activity,[24],0.1%
same,Activity,[25],2.4%
same,Activity,[26],1.8%
same,Activity,[27],0.4%
same,Activity,[28],2.8%
same,Activity,[29],0.1%
same,inhibition,[30],Active
same,Activity,[31],Non-Toxic
same,Activity,[32],Non-Toxic
same,inhibition,[33],Active
